These results are taken from US10253039B2, “Inhibitors of bacterial DNA gyrase with efficacy against gram-negative bacteria” (priority 2014, dated 2019).

As a reminder, the MIC is the lowest concentration that inhibits growth of the organism.

Assay type in all cases: cell-based
One experiment deals with Acinetobacter baumannii. As to the kind of experiment: MIC, microdilution in 96-well plates. In outline: (§1)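 After 16-18 h shaking incubation at 37 °C, MIC was read visually as the lowest concentration without turbidity. Compounds were 2-fold serially diluted in LB medium seeded with a 1:10000 inoculum, following the CLSI microdilution protocol.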
The next experiment deals with E. coli BW25113. As to the kind of experiment: MIC, microdilution in 96-well plates. Conditions: Escherichia coli, read-out: MIC. In outline: as §1
The subject of a further experiment is Edwardsiella tarda. As to the kind of experiment: MIC, microdilution in 96-well plates. The gist of the method: as §1
For orientation: Broth dilution looks for growth in wells or tubes with falling amounts of substance.

Another experiment has as its system Enterobacter aerogenes. As to the kind of experiment: MIC, microdilution in 96-well plates. The settings on record: Klebsiella aerogenes. The gist of the method:
as §1

For the next experiment, the system named is Pseudomonas aeruginosa. Kind of experiment: MIC, microdilution in 96-well plates. The gist of the method: as §1
For another experiment, the system named is E. coli JW5503 (deltolC). As to the kind of experiment: MIC, 20-strain panel. The settings on record: Escherichia coli. The gist of the method:
as §1

A further experiment deals with E. coli MG1655. Kind of experiment: MIC, 20-strain panel. Conditions: Escherichia coli, read-out: MIC. The gist of the method: as §1
The subject of experiment [1] is Klebsiella pneumoniae subsp. pneumoniae. As to the kind of experiment: MIC, 20-strain panel. In outline: as §1
For experiment [2], the system named is Morganella morganii subsp. morganii. As to the kind of experiment: MIC, 20-strain panel. The settings on record: Morganella morganii. In outline: as §1
Experiment [3] deals with Salmonella enterica subsp. enterica typhimurium. Kind of experiment: MIC, 20-strain panel. The gist of the method:
as §1

Another experiment relates to Shigella flexneri. Kind of experiment: MIC, 20-strain panel. In outline: as §1
Experiment [4] deals with Staphylococcus aureus subsp. aureus. Kind of experiment: MIC, 20-strain panel. The settings on record: read-out: MIC. In outline:
as §1

In experiment [5] the test system is Staphylococcus epidermidis. Kind of experiment: MIC, 20-strain panel. The gist of the method: as §1
The subject of experiment [6] is Staphylococcus saprophyticus subsp. saprophyticus. As to the kind of experiment: MIC, 20-strain panel. The gist of the method:
as §1

Another experiment has as its system Streptococcus agalactiae. Kind of experiment: MIC, 20-strain panel. In outline:
as §1

Another experiment has as its system Streptococcus pyogenes. Kind of experiment: MIC, 20-strain panel. In outline: as §1
The mark [7] stands for this setting: BW25113, E. coli BW25113, Table 7, separate set of experiments.
Setting [8] is: Table 7, separate set of experiments.
Where [9] appears, read: E. coli JW5503 (deltolC), Table 7, separate set of experiments.
[10] abbreviates: MG1655, E. coli MG1655, Table 7, separate set of experiments.
[11] abbreviates: E: Klebsiella pneumoniae subsp. pneumoniae.
[12] abbreviates: Klebsiella pneumoniae subsp. pneumoniae, Table 7, separate set of experiments.
Setting [13] is: F: Salmonella enterica subsp. enterica Typhimurium.
The mark [14] stands for this setting: Salmonella enterica subsp. enterica typhimurium, Table 7, separate set of experiments.
The mark [15] stands for this setting: H: Staphylococcus aureus subsp. aureus.

In brackets after ≈: the same amount, converted by molar mass. Like-named read-outs stand apart in the source and are kept apart here.

Take `N#Cc1ccc(Cl)c(S(=O)(=O)N[C@@H]2CCN(Cc3ccc(OC4CC4)cc3)C2)c1` [Compound 77]: the MIC was greater than 16 µg/mL in the experiment with Acinetobacter baumannii; 8 µg/mL (≈ 18.5 µM) in the experiment with E. coli BW25113 (BW25113, B: E. coli BW25113); 8 µg/mL (≈ 18.5 µM) in the experiment with E. coli BW25113 (setting [7]); 8 µg/mL (≈ 18.5 µM) in the experiment with Edwardsiella tarda (D: Edwardsiella tarda); 16 µg/mL (≈ 37 µM) in the experiment on Edwardsiella tarda (setting [8]); greater than 16 µg/mL in the experiment with Enterobacter aerogenes. Besides, the MIC was greater than 16 µg/mL with Pseudomonas aeruginosa; 0.125 µg/mL (≈ 0.289 µM) with E. coli JW5503 (deltolC) (C: E. coli JW5503 (deltolC)); 0.125 µg/mL (≈ 0.289 µM) against E. coli JW5503 (deltolC) (setting [9]); 8 µg/mL (≈ 18.5 µM) in the experiment with E. coli MG1655 (MG1655, A: E. coli MG1655); 16 µg/mL (≈ 37 µM) in the experiment on E. coli MG1655 (setting [10]); roughly 8 µg/mL (≈ 18.5 µM) in experiment [1] (setting [11]). Also, the MIC in experiment [1] (setting [12]) is greater than 16 µg/mL; in experiment [2] it was greater than 16 µg/mL; in experiment [3] (setting [13]), 1 µg/mL (≈ 2.32 µM); in experiment [3] (setting [14]) it was 2 µg/mL (≈ 4.63 µM); in the experiment with Shigella flexneri (G: Shigella flexneri), 4 µg/mL (≈ 9.26 µM); in the experiment with Shigella flexneri (setting [8]), 4 µg/mL (≈ 9.26 µM). The MIC (in experiment [4] (setting [15]); in experiment [5]; in experiment [6]; in the experiment on Streptococcus agalactiae; in the experiment on Streptococcus pyogenes) was greater than 8 µg/mL throughout.
In the case of `Cc1ccc(C#N)cc1S(=O)(=O)N[C@@H]1CCN(Cc2ccc(OC3CC3)cc2)C1` [Compound 113], the MIC with Acinetobacter baumannii is greater than 16 µg/mL; with E. coli BW25113 (BW25113, B: E. coli BW25113), roughly 8 µg/mL (≈ 19.4 µM); in the experiment on E. coli BW25113 (setting [7]), 8 µg/mL (≈ 19.4 µM); against Edwardsiella tarda (D: Edwardsiella tarda), roughly 8 µg/mL (≈ 19.4 µM); in the experiment on Edwardsiella tarda (setting [8]), 16 µg/mL (≈ 38.9 µM); against Enterobacter aerogenes, greater than 16 µg/mL. Also, the minimal inhibitory concentration (MIC) is greater than 16 µg/mL in the experiment with Pseudomonas aeruginosa; 0.25 µg/mL (≈ 0.607 µM) against E. coli JW5503 (deltolC) (C: E. coli JW5503 (deltolC)); 0.125 µg/mL (≈ 0.304 µM) in the experiment on E. coli JW5503 (deltolC) (setting [9]); roughly 8 µg/mL (≈ 19.4 µM) with E. coli MG1655 (MG1655, A: E. coli MG1655); 16 µg/mL (≈ 38.9 µM) with E. coli MG1655 (setting [10]); greater than 8 µg/mL in experiment [1] (setting [11]). Moreover, the MIC in experiment [1] (setting [12]) is greater than 16 µg/mL; in [2], greater than 16 µg/mL; in experiment [3] (setting [13]), 2 µg/mL (≈ 4.86 µM); in [3] (setting [14]), 4 µg/mL (≈ 9.72 µM); in the experiment with Shigella flexneri (G: Shigella flexneri) it was roughly 8 µg/mL (≈ 19.4 µM); with Shigella flexneri (setting [8]), 8 µg/mL (≈ 19.4 µM). In addition, the MIC (in experiment [4] (setting [15]); in experiment [5]; in [6]; against Streptococcus agalactiae; in the experiment on Streptococcus pyogenes) was greater than 8 µg/mL each time.
`O=S(=O)(N[C@@H]1CCN(Cc2ccc(OC3CC3)cc2)C1)c1cccc(C(F)(F)F)c1` [Compound 156]: the MIC against Acinetobacter baumannii was greater than 16 µg/mL; in the experiment on E. coli BW25113 (BW25113, B: E. coli BW25113) it was roughly 8 µg/mL (≈ 18.2 µM); with E. coli BW25113 (setting [7]) it was 16 µg/mL (≈ 36.3 µM); with Edwardsiella tarda (D: Edwardsiella tarda), roughly 8 µg/mL (≈ 18.2 µM); against Edwardsiella tarda (setting [8]) it was 16 µg/mL (≈ 36.3 µM); with Enterobacter aerogenes, greater than 16 µg/mL. Also, the MIC was greater than 16 µg/mL in the experiment with Pseudomonas aeruginosa; 0.125 µg/mL (≈ 0.284 µM) with E. coli JW5503 (deltolC) (C: E. coli JW5503 (deltolC)); 0.125 µg/mL (≈ 0.284 µM) against E. coli JW5503 (deltolC) (setting [9]); roughly 8 µg/mL (≈ 18.2 µM) in the experiment with E. coli MG1655 (MG1655, A: E. coli MG1655); 16 µg/mL (≈ 36.3 µM) in the experiment on E. coli MG1655 (setting [10]); greater than 8 µg/mL in [1] (setting [11]). Also, the minimum inhibitory concentration (MIC) in experiment [1] (setting [12]) is greater than 16 µg/mL; in experiment [2], greater than 16 µg/mL; in [3] (setting [13]), 4 µg/mL (≈ 9.08 µM); in [3] (setting [14]) it was 4 µg/mL (≈ 9.08 µM); in the experiment with Shigella flexneri (G: Shigella flexneri) it was 8 µg/mL (≈ 18.2 µM); against Shigella flexneri (setting [8]), 8 µg/mL (≈ 18.2 µM). Besides, the MIC (in experiment [4] (setting [15]); in experiment [5]; in experiment [6]; in the experiment on Streptococcus agalactiae; in the experiment on Streptococcus pyogenes) was greater than 8 µg/mL each time.
With `Cc1ccc(C(F)(F)F)cc1S(=O)(=O)N[C@@H]1CCN(Cc2ccc(-c3ccccc3)cc2)C1` [Compound 182], the MIC was greater than 8 µg/mL in the experiment with E. coli BW25113 (BW25113, B: E. coli BW25113); greater than 8 µg/mL against Edwardsiella tarda (D: Edwardsiella tarda); 4 µg/mL (≈ 8.43 µM) against E. coli JW5503 (deltolC) (C: E. coli JW5503 (deltolC)); greater than 8 µg/mL in the experiment on E. coli MG1655 (MG1655, A: E. coli MG1655); greater than 8 µg/mL in experiment [1] (setting [11]); greater than 8 µg/mL in experiment [3] (setting [13]). For the same molecule, the MIC in the experiment with Shigella flexneri (G: Shigella flexneri) was greater than 8 µg/mL; in experiment [4] (setting [15]), greater than 8 µg/mL; in experiment [5], 4 µg/mL (≈ 8.43 µM); in experiment [6], greater than 8 µg/mL; with Streptococcus agalactiae it was greater than 8 µg/mL; against Streptococcus pyogenes, roughly 8 µg/mL (≈ 16.9 µM).
`Cc1ccc(C(F)(F)F)cc1S(=O)(=O)N[C@@H]1CCN(Cc2ccc(OC(C)C)cc2)C1` [Compound 183]: the MIC in the experiment on E. coli BW25113 (BW25113, E. coli BW25113) was greater than 8 µg/mL; with Edwardsiella tarda it was greater than 8 µg/mL; against E. coli JW5503 (deltolC) (E. coli JW5503 (deltolC)), 0.5 µg/mL (≈ 1.1 µM); with E. coli MG1655 (MG1655, E. coli MG1655), greater than 8 µg/mL; in experiment [1] (Klebsiella pneumoniae subsp. pneumoniae), greater than 8 µg/mL; in [3] (Salmonella enterica subsp. enterica Typhimurium), 8 µg/mL (≈ 17.5 µM). Besides, the MIC (in the experiment on Shigella flexneri; in [4] (Staphylococcus aureus subsp. aureus); in experiment [5]; in [6]; with Streptococcus agalactiae; in the experiment on Streptococcus pyogenes) was greater than 8 µg/mL in each case.
